Residues, ends and D or L forms follow the SMILES beside them.
Tests used:
[1] = mouse, in vivo

Structure (SMILES): CCCCCCCCCCCCCCCC(=O)N[C@H](C(=O)N[C@H](C(=O)N[C@H](C(=O)N[C@@H](C)C(=O)N[C@@H](C)C(=O)N[C@@H](C)C(=O)N[C@@H](CCCCN)C(=O)N[C@@H](CCCCN)C(=O)N[C@@H](CCCCN)C(=O)NCC(=O)NCC(=O)NCC(=O)NCC(=O)N[C@@H](CO)C(=O)N[C@@H](CC(C)C)C(=O)N[C@@H](CC(C)C)C(=O)N[C@H](C(=O)N[C@@H](CCC(=O)O)C(=O)N[C@H](C(=O)N[C@@H](CCC(=O)O)C(=O)N[C@H](C(=O)N1CCC[C@H]1C(=O)N[C@H](C(=O)N[C@@H](CCCNC(=N)N)C(=O)N[C@@H](CC(N)=O)C(=O)N[C@@H](CCC(=O)O)C(=O)N[C@@H](Cc1c[nH]c2ccccc12)C(=O)NCC(=O)N[C@@H](CO)C(=O)N[C@@H](CCCNC(=N)N)C(=O)N[C@@H](CO)C(=O)N[C@@H](CC(N)=O)C(=O)NCC(=O)N[C@@H](CO)C(=O)N[C@@H](CO)C(=O)N[C@@H](CC(=O)O)C(=O)O)[C@@H](C)CC)[C@@H](C)O)C(C)C)[C@@H](C)O)C(C)C)C(C)C)C(C)C [PA–M2e] (HELM PEPTIDE1{[CCCCCCCCCCCCCCCC(=O)[*:2]].V.V.V.A.A.A.K.K.K.G.G.G.G.S.L.L.T.E.V.E.T.P.I.R.N.E.W.G.S.R.S.N.G.S.S.D}$$$$V2.0)
- cell viability (metabolic activity, resazurin reduction) (DC2.4 cells): did not significantly decrease cell viability
- live–dead cell assay by confocal microscopy (DC2.4 cells): confirmed the biocompatibility
- weight loss upon immunization [1]: none of the mice experienced weight loss

From publication PMC11960782 (Nanoscale Advances, 2025)
